Earlier results, collected in patent US20120148512A1, “Method for Increasing the Sun Protection Factor of a Cosmetic and/or Dermatological Preparation” (BASF SE, priority 2006, published 2012).

| absorption retained in the absorption maximum (following sun-simulated irradiation (5 and 10 MED)) | photostability (filter substance on its own) | SMILES |
| --- | --- | --- |
| more than 90% |  | O=S(=O)(O)c1ccc2nc(-c3ccccc3)[nH]c2c1 [2-phenylbenzimidazole-5-sulfonic acid] |
|  | not photostable | COc1ccc(C(=O)CC(=O)c2ccc(C(C)(C)C)cc2)cc1 [BMDBM, 4-(tert-butyl)-4′-methoxydibenzoylmethane] |
